Results: ChEMBL document CHEMBL5537110, “SIRT1-dependent mitochondrial biogenesis supports therapeutic effects of 4-butyl-polyhydroxybenzophenone compounds against NAFLD” (Eur J Med Chem, 2023)
Activity calls are given as the source filed them. The calls are words filed in the database; no cut-off is given here.

Experiments:
[1] = system: EA.hy 926; experiment: Cytoprotective activity against H2O2-induced toxicity in human EA.hy 926 cells assessed as protective rate at 10 uM pretreated with compound for 4 hrs followed by incubation with H2O2 for 2 hrs by absorbance based analysis; type: functional; settings: time 6 hrs
[2] = biological target: T1, NAD-dependent protein deacetylase sirtuin-1 (Homo sapiens) (UniProt Q96EB6); experiment: Binding affinity to SIRT1 in human HepG2 cells assessed as increase in protein abundance at 80 to 320 uM pretreated with compound for 30 mins followed by proteolysis for 15 mins by DARTS assay; type: cell-based; settings: filed as activator, dose 80-320 µM, time 45.0 min
T1 sequence (whole entry): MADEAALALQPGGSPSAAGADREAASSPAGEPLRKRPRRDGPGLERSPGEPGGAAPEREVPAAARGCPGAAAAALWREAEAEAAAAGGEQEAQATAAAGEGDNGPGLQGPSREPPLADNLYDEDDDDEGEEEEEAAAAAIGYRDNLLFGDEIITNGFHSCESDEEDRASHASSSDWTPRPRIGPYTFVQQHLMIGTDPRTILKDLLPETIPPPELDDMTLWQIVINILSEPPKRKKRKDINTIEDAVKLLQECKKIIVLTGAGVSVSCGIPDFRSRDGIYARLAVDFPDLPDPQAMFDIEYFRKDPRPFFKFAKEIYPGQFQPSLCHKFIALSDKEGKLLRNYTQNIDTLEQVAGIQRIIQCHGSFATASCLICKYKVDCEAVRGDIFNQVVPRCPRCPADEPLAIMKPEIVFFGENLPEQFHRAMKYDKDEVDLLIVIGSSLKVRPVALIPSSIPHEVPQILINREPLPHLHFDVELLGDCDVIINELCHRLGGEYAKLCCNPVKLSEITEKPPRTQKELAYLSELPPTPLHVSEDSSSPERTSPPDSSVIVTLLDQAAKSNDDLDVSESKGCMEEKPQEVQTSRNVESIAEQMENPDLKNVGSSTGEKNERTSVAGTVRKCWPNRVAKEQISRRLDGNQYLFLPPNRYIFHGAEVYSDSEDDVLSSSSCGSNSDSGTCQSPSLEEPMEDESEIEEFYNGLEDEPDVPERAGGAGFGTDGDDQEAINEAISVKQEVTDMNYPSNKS

[3] = system: Mitochondria; experiment: Inhibition of mitochondrial dysfunction in 40% FBS-induced steatosis human HepG2 cells model assessed as decrease in lipid vesicle droplets at 5 uM incubated for 24 hrs by transmission electron microscopy; type: functional
[4] = system: HepG2; experiment: Recovery of mitochondrial biogenesis in 40% FBS-induced steatosis human HepG2 cells model assessed as increase in NRF1 protein expression incubated for 24 hrs by western blot analysis; type: functional, cell-based; settings: dose 0.2-5 µM
[5] = system: HepG2; experiment: Recovery of mitochondrial biogenesis in 40% FBS-induced steatosis human HepG2 cells model assessed as increase in mitochondrial COX1 mRNA expression incubated for 24 hrs by qRT-PCR analysis; type: functional, cell-based; settings: dose 0.2-5 µM
[6] = system: HepG2; experiment: Inhibition of oxidative stress in 40% FBS-induced steatosis human HepG2 cells model assessed as reduction in mitochondrial ROS production incubated with compound for 24 hrs followed by replacement with steatosis inducing DMEM with 40% FBS medium by MitoSOX Red dye based fluorescence microscopy; type: functional, cell-based; settings: Mitochondria, dose 0.2-5 µM
[7] = system: HepG2; experiment: Recovery of energy production in 40% FBS-induced steatosis human HepG2 cells model assessed as upregulation of mitochondrial ATP production incubated with compound for 24 hrs followed by replacement with steatosis inducing DMEM with 40% FBS medium by luciferase based assay; type: functional, cell-based; settings: Mitochondria, dose 0.2-5 µM
[8] = system: HepG2; experiment: Inhibition of lipid toxicity in 40% FBS-induced steatosis human HepG2 cells model assessed as decrease in triglyceride content at 0.2 to 5 uM incubated in steatosis inducing DMEM with 40% FBS medium for 24 hrs followed by compound treatment; type: functional, cell-based; settings: dose 0.2-5 µM
[9] = system: HepG2; experiment: Inhibition of liver injury in 40% FBS-induced steatosis human HepG2 cells model assessed as decrease in LDH level at 0.2 to 5 uM incubated in steatosis inducing DMEM with 40% FBS medium for 24 hrs followed by compound treatment; type: functional, cell-based; settings: dose 0.2-5 µM
[10] = system: HepG2; experiment: Inhibition of liver injury in 40% FBS-induced steatosis human HepG2 cells model assessed as decrease in GDH level at 0.2 to 5 uM incubated in steatosis inducing DMEM with 40% FBS medium for 24 hrs followed by compound treatment; type: functional, cell-based; settings: dose 0.2-5 µM
[11] = system: HepG2; experiment: Inhibition of liver injury in 40% FBS-induced steatosis human HepG2 cells model assessed as decrease in LDH level at 0.2 to 5 uM incubated with compound for 24 hrs followed by replacement with steatosis inducing DMEM with 40% FBS medium; type: functional, cell-based; settings: dose 0.2-5 µM
[12] = system: HepG2; experiment: Inhibition of liver injury in 40% FBS-induced steatosis human HepG2 cells model assessed as increase in liver protection index by measuring increase in ratio of GSH to GSSG at 0.2 to 5 uM incubated in steatosis inducing DMEM with 40% FBS medium for 24 hrs followed by compound treatment; type: functional, cell-based; settings: dose 0.2-5 µM
[13] = system: HepG2; experiment: Inhibition of liver injury in 40% FBS-induced steatosis human HepG2 cells model assessed as increase in liver protection index by measuring increase in GSH level at 0.2 to 5 uM incubated with compound for 24 hrs followed by replacement with steatosis inducing DMEM with 40% FBS medium; type: functional, cell-based; settings: dose 0.2-5 µM
[14] = system: Rattus norvegicus; experiment: Hepatoprotective activity against high fat diet-fed NAFLD Sprague-Dawley rat model assessed as inhibition of diet-induced body weight gain administered intragastrically via gavage for 4 weeks; type: functional, organism-based; settings: dose 12.3-61.4 mg/kg, route ig
[15] = system: Rattus norvegicus; experiment: Hepatoprotective activity against high fat diet-fed NAFLD Sprague-Dawley rat model assessed as decrease in serum AKP level administered intragastrically via gavage for 4 weeks; type: functional, organism-based; settings: dose 12.3-61.4 mg/kg, route ig
[16] = system: Rattus norvegicus; experiment: Hepatoprotective activity against high fat diet-fed NAFLD Sprague-Dawley rat model assessed as increase in serum SOD level administered intragastrically via gavage for 4 weeks; type: functional, organism-based; settings: dose 12.3-61.4 mg/kg, route ig
[17] = system: Rattus norvegicus; experiment: Hepatoprotective activity against high fat diet-fed NAFLD Sprague-Dawley rat model assessed as increase in serum GSH level administered intragastrically via gavage for 4 weeks; type: functional, organism-based; settings: dose 12.3-61.4 mg/kg, route ig
[18] = system: HepG2; experiment: Induction of mitochondrial biogenesis in human HepG2 cells assessed as PGC1alpha protein expression incubated for 24 hrs in presence of SIRT1 inhibitor, EX527 by western blot analysis; type: functional, cell-based
[19] = system: HepG2; experiment: Induction of mitochondrial biogenesis in human HepG2 cells assessed as NRF1 protein expression incubated for 24 hrs in presence of SIRT1 inhibitor, EX527 by western blot analysis; type: functional, cell-based
[20] = system: HepG2; experiment: Induction of mitochondrial biogenesis in human HepG2 cells assessed as TFAM protein expression incubated for 24 hrs in presence of SIRT1 inhibitor, EX527 by western blot analysis; type: functional, cell-based
[21] = system: HepG2; experiment: Induction of mitochondrial biogenesis in human HepG2 cells assessed as mitochondrial COX1 protein expression incubated for 24 hrs in presence of SIRT1 inhibitor, EX527 by western blot analysis; type: functional, cell-based
[22] = system: HepG2; experiment: Induction of mitochondrial biogenesis in human HepG2 cells assessed as NRF1 mRNA expression incubated for 24 hrs in presence of SIRT1 inhibitor, EX527 by qRT-PCR analysis; type: functional, cell-based
[23] = system: HepG2; experiment: Induction of mitochondrial biogenesis in human HepG2 cells assessed as mitochondrial ND6 mRNA expression incubated for 24 hrs in presence of SIRT1 inhibitor, EX527 by qRT-PCR analysis; type: functional, cell-based

CC(C)(C)c1ccc(C(=O)c2ccc(O)c(O)c2)cc1
Activity [1]: 87.46% | Activity [2]: Active | inhibition [3]: Active | Activity [4]: Dose-Dependent Effect | Activity [5]: Dose-Dependent Effect | inhibition [6]: Dose-Dependent Effect | Activity [7]: Dose-Dependent Effect | inhibition [8]: Active | inhibition [9]: Active | inhibition [10]: Active | inhibition [11]: Active | inhibition [12]: Active | inhibition [13]: Active | Activity [14]: Dose-Dependent Effect | Activity [15]: Active | Activity [16]: Active | Activity [17]: Active | Activity [18]: inactive | Activity [19]: inactive | Activity [20]: inactive | Activity [21]: inactive | Activity [22]: inactive | Activity [23]: inactive
